From ChEMBL document CHEMBL4699455, “2H-1,2,3-Triazole-chalcones as novel cytotoxic agents against prostate cancer” (Bioorg Med Chem Lett, 2020) come the findings set out here.

Calls of active or inactive are those of the source. No cut-off for these calls is given here.

The test system of assay [1] is PC-3. In words: Cytotoxicity against human PC-3 cells assessed as reduction in cell viability at 100 uM measured after 24 hrs by MTT assay. The assay is classed as functional, cell-based.
In assay [2] the test system is PC-3. Briefly: Cytotoxicity against human PC-3 cells assessed as reduction in cell viability at 50 uM measured after 24 hrs by MTT assay relative to control. In kind it is functional. A general note: Tetrazolium assays rely on reduction of a dye to a coloured formazan, in cell work by metabolically active cells.
The subject of assay [3] is PC-3. Briefly: Cytotoxicity against human PC-3 cells assessed as reduction in cell viability measured after 24 hrs by MTT assay. The note with it: PC-3, 24 h. The assay is classed as functional, cell-based.
Assay [4] has as its system PC-3. In words: Cytotoxicity against human PC-3 cells assessed as reduction in cell viability at 100 uM measured after 24 hrs by MTT assay relative to control. The assay is classed as functional.
For assay [5], the system named is PC-3. In words: Cytotoxicity against human PC-3 cells assessed as reduction in cell viability at 25 uM measured after 24 hrs by MTT assay relative to control. In kind it is functional.
Assay [6] relates to PC-3. Briefly: Cytotoxicity against human PC-3 cells assessed as reduction in cell viability at 10 uM measured after 24 hrs by MTT assay relative to control. The assay is classed as functional.

`C/C(=C\c1cnn(-c2ccccc2)n1)C(=O)c1ccccc1`: the outcome in assay [1] was inactive.

Regarding `C/C(=C\c1cnn(-c2ccccc2)n1)C(=O)c1ccc(F)cc1`, the result in assay [1] was inactive.

As a reminder, the IC50 is the concentration that inhibits the measured activity by half. Turning to `O=C(/C=C/c1cnn(-c2ccccc2)n1)c1cccs1`, the Activity was 50% in assay [2] and 24.23% in assay [4]. Further, the IC50 in assay [3] turned out to be 47.9 µM.

With `Cc1ccc(C(=O)/C=C/c2cnn(-c3ccccc3)n2)c(C)c1`, the Activity was 39.03% in assay [5], 3% in assay [2], 0% in assay [4] and 85.61% in assay [6]. Further, the IC50 in assay [3] stood at 15.6 µM.

Consider `O=C(/C=C/c1cnn(-c2ccccc2)n1)c1ccccc1`, for which the Activity in assay [5] stood at 44.7%; in assay [4] it was 6.38%; in assay [6], 73.62%. Moreover, the IC50 in assay [3] stood at 28.6 µM.

With `C/C(=C\c1cnn(-c2ccccc2)n1)C(=O)c1ccc(C(F)(F)F)cc1`, the result in assay [1] was inactive.

On to `COc1cccc2c1C(=O)c1c(O)c3c(c(O)c1C2=O)C[C@@](O)(C(=O)CO)C[C@@H]3O[C@H]1C[C@H](N)[C@H](O)[C@H](C)O1` [DOXORUBICIN], for which the IC50 in assay [3] is 0.77 µM.

With `COc1ccc(C(=O)/C=C/c2cnn(-c3ccccc3)n2)c(OC)c1`, the Activity is 16.03% in assay [5], 5.37% in assay [4] and 73.03% in assay [6]. Further, the IC50 in assay [3] came to 25.6 µM.

On to `COc1cc(-c2cccs2)cc(-c2nnn(Cc3ccccc3)c2C)n1`, for which, in assay [3], the IC50 amounted to 1.03 µM.
